What all share (assay): growth of human tumour cells (NCI), 48 h
Assay [1] has as its system A498 renal.
The subject of assay [2] is HL-60(TB) leukemia.
Assay [3] has as its system HOP-62 NSCLC.
For assay [4], the system named is HS 578T breast.
Assay [5] relates to HT29 colon.
The test system of assay [6] is IGROV1 ovarian.
Assay [7] concerns MALME-3M melanoma.
In assay [8] the test system is MOLT-4 leukemia.
For assay [9], the system named is NCI-H460 lung.
Assay [10] concerns NCI-H522 lung.
In assay [11] the test system is SK-MEL-5 melanoma.
For assay [12], the system named is SK-OV-3 ovarian.
Assay [13] concerns SN12C renal.
Assay [14] has as its system TK-10 renal.

Structures are written as SMILES.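 The compound was tested at five concentrations on cells cultured in 96-well plates, with a 48-hour exposure period. At the TGI there is no net growth.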

Turning to `O=C(O)Cc1ccc(N2N=C(c3ccccc3)CC2=O)cc1`, the TGI in assay [1], in assay [2], in assay [3], in assay [4], in [5] and in [6] was over 100 µM in each case. The TGI in [7], in assay [8], in assay [9], in assay [10], in assay [11] and in assay [12] was over 100 µM each time. Besides, the TGI in assay [13] and in assay [14] was over 100 µM in each case.

Consider `C=CCN1C(=O)/C(=C/c2ccc(C)cc2)N=C1SC/C=C/C`, for which the TGI was 84.9 µM in assay [1]; 47.9 µM in [2]; over 100 µM in assay [3]; over 100 µM in assay [4]; over 100 µM in assay [5]; over 100 µM in assay [6]. Further, the TGI in [7] is 93.4 µM; in assay [8], 37.8 µM; in [9], over 100 µM; in [10], over 100 µM; in [11], 44.6 µM; in assay [12], over 100 µM. The TGI in assay [13] and in [14] was over 100 µM throughout.

Turning to `CCOC(=O)CCC(NC(=O)c1ccc(CNc2nc3cc(N)cc(N)c3nc2-c2ccccc2)cc1)C(=O)OCC` (stereo unspecified), the TGI in assay [1] was over 100 µM; in [2], over 45 µM; in assay [3], over 100 µM; in [4], over 100 µM; in [5], over 100 µM; in assay [6] it was over 100 µM. Moreover, the TGI in assay [7] is 35.3 µM; in assay [8], 9.43 µM; in [9] it was over 100 µM; in [10], over 100 µM; in assay [11], over 100 µM; in assay [12], over 100 µM. The figures for the TGI in [13] and in assay [14] were over 90.2 µM and over 100 µM, respectively.

For `Cn1c(N2CCCC2)c(C=O)c(=O)n(C)c1=O`, the TGI in assay [1], in [2], in assay [3], in assay [4], in [5] and in assay [6] was over 100 µM each time. In addition, the TGI in assay [7], in [8], in [9], in assay [10], in [11] and in assay [12] was over 100 µM throughout. The TGI in assay [13] and in assay [14] was over 100 µM throughout.

Regarding `Cc1cc(C)c2c(n1)S(=O)(=O)N(CCCN1CCN(c3cccc(C(F)(F)F)c3)CC1)/C(=C(\O)c1ccccc1)C2=O`, the TGI is over 100 µM in assay [1]; 8.97 µM in assay [2]; over 100 µM in assay [3]; over 100 µM in [4]; 43.9 µM in [5]; 20.5 µM in assay [6]. Moreover, the TGI in assay [7] was over 100 µM; in assay [8], 10.8 µM; in [9] it was 22.3 µM; in [10], 88.9 µM; in assay [11], 14.1 µM; in assay [12], 84.7 µM. Further, the TGI in assay [13] and in assay [14] was over 100 µM each time.

Take `CCOC(=O)CCC(C(=O)OCC)n1nc2ccc(Nc3c(C)[n+]([O-])c4cc(Cl)ccc4[n+]3[O-])cc2n1` (stereo unspecified): the TGI in [1], in [2], in [3], in assay [4], in assay [5] and in assay [6] was over 100 µM each time. For the same compound, the TGI in [7] is over 100 µM; in assay [8], over 100 µM; in assay [9] it was 67.4 µM; in assay [10], over 100 µM; in [11], over 100 µM; in [12], over 100 µM. Besides, the TGI in [13] and in assay [14] was over 100 µM in each case.

In the case of `COC(=O)[C@H]1[C@H](C(=O)OC)[C@@H](C)c2c(ccc3c2[nH]c2ccccc23)[C@@H]1C`, the TGI in [1], in assay [2], in assay [3], in [4], in assay [5] and in assay [6] was over 100 µM throughout. In addition, the TGI in [7] is over 100 µM; in assay [8], 6.7 µM; in assay [9], over 100 µM; in assay [10], over 100 µM; in [11] it was over 100 µM; in assay [12], over 100 µM. Further, the TGI was 33.5 µM in assay [13] and over 100 µM in [14].

In the case of `C[n+]1c2ccccc2c(CNC(CCC(N)=O)C(=O)O)c2ccccc21` (stereo unspecified), the TGI in assay [1] was determined as 6.93 µM; in assay [2], 7.65 µM; in [3], 12.3 µM; in assay [4], 21.8 µM; in assay [5] it was 7.01 µM; in assay [6] it was 13.4 µM. Also, the TGI in assay [7] is 10.6 µM; in assay [8], 10 µM; in assay [9], 11.8 µM; in [10], 3.18 µM; in [11] it was 10.5 µM; in assay [12], 19.7 µM. The results for the TGI in [13] and in assay [14] were 7.36 µM and 5.68 µM, respectively.

Take `O=C(O)c1c(-c2c3ccc(=O)cc-3oc3cc(O)ccc23)cc2ccccc2c1-c1ccccc1`: the TGI in [1], in [2], in assay [3], in assay [4], in [5] and in assay [6] was over 100 µM throughout. Also, the TGI in [7] is over 100 µM; in assay [8], 8.37 µM; in [9], over 100 µM; in [10], over 100 µM; in [11], over 100 µM; in assay [12], over 100 µM. The TGI in [13] and in [14] was over 100 µM throughout.

The record behind these values is PubChem BioAssay (NCI).
